Values of other authors, collected in patent US12097177B2, “Therapeutic method for cat with chronic kidney disease” (Toray Industries, Inc., priority 2021, dated 2024).
Counter-ions that a name gives are not always drawn. Like-named read-outs stand apart in the source and are kept apart here.

Experiments:
[1] = rats; cited from earlier work
[2] = humans; cited from earlier work
feline CKD [3] = conditions: in vivo; cited from earlier work
feline CKD [4] = conditions: in vivo; cited from earlier work; remark: listed apart in the source
feline CKD [5] = conditions: in vivo; cited from earlier work; remark: listed apart in the source

Structure (SMILES): CC#CC[C@H](C)[C@H](O)/C=C/[C@@H]1[C@H]2c3cccc(CCCC(=O)[O-])c3O[C@H]2C[C@H]1O.[Na+] (single isomer, unassigned) [BPS-314d]
- AUC of plasma BPS-314d when BPS is administered (fraction) [1]: ¼
- Cmax of plasma BPS-314d when BPS is administered (fraction) [1]: ¼
- AUC of plasma BPS-314d when BPS is administered (fraction) [2]: ¼
- Cmax of plasma BPS-314d when BPS is administered (fraction) [2]: ¼

Structure (SMILES): CCCc1nc2c(C)cc(-c3nc4ccccc4n3C)cc2n1Cc1ccc(-c2ccccc2C(=O)O)cc1 [telmisartan]
- proteinuria (feline CKD [3]): improve proteinuria of feline CKD

Structure (SMILES): CCOC(=O)[C@H](CCc1ccccc1)N[C@H]1CCc2ccccc2N(CC(=O)O)C1=O [Benazepril hydrochloride, benazepril hydrochloride]
- progression of feline CKD stage (feline CKD [4]): has not been found to inhibit progression of feline CKD stage
- proteinuria (feline CKD [4]): lower the severity of proteinuria
- serum creatinine (feline CKD [4]): inhibit elevation in serum creatinine

Structure (SMILES): CN1N=C2CCN(C(=O)[C@@H](COCc3ccccc3)NC(=O)C(C)(C)N)C[C@@]2(Cc2ccccc2)C1=O [capromorelin]
- body weight loss (feline CKD [5]): inhibit body weight loss
- overall survival rate or observed survival rate (feline CKD [5]): no improvement in the overall survival rate or the observed survival rate of feline CKD has been demonstrated
